In patent US20150344457A1, “METHODS OF INHIBITING PRMT5” (EPIZYME, INC., priority 2012, published 2015):

Assays:
PRMT5/MEP50 = molecular target: T1, PRMT5/MEP50 (Homo sapiens, UniProt O14744); assay: PRMT5 Biochemical Assay (PRMT5/MEP50 enzyme assay on peptide substrate, 3H-SAM Flashplate); details: Table D-2; read-out: Biochemical IC50
T1 construct: Expressed full-length human Flag-PRMT5/6His-MeP50 protein complex was purified; made in house; host or cells: Spodoptera frugiperda (SF9) insect cells, baculovirus (pDEST8)
T1 sequence (O14744 with tags, fused parts or gaps): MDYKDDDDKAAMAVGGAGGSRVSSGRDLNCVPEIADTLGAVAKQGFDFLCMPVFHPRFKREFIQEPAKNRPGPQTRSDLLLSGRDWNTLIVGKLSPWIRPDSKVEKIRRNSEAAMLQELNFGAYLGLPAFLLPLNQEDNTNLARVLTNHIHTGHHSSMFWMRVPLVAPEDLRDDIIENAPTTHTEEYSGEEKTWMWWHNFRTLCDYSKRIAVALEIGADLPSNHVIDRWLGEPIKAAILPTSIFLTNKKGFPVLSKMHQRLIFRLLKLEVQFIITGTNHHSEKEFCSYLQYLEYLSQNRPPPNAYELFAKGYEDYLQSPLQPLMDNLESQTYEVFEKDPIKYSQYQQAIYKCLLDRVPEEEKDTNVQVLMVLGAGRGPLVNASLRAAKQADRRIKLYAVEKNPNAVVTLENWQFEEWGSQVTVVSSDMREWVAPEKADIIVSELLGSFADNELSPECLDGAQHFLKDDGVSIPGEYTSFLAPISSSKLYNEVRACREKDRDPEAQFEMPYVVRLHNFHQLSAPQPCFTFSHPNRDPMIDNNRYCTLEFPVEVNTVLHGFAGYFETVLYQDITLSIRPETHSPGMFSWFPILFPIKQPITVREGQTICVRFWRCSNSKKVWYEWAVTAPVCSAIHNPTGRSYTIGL
T1 sequence (Q9BQA1 with tags, fused parts or gaps partner limits assumed): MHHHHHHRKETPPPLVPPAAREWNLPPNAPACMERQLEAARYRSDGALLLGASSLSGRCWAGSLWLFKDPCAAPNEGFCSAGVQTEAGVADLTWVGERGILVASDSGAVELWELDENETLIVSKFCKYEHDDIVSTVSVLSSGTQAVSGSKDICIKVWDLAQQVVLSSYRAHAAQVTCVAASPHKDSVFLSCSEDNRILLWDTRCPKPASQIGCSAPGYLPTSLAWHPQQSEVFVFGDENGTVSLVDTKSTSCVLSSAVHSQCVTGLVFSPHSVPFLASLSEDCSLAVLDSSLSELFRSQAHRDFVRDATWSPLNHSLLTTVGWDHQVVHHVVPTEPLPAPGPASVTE

Z-138 cells = assay: Z-138 Proliferation Assay (Cell Titer Glo, 5 days); format: cell-based; details: Homo sapiens, Table D-2
Method in brief: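 Exponentially growing Z-138 cells (10,000 cells/ml) in RPMI 1640 with 10% FBS are exposed to nine-point 3-fold dilutions (final top concentration 20 μM, 0.2% DMSO) for 5 days at 37° C. Viability is measured as ATP by CellTiter-Glo luminescence. The 50% inhibitory concentration comes from a 4-parameter fit.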

IC50 (PRMT5/MEP50) | SMILES | EC50 (Z-138 cells)
0.101 to 1 µM | N#Cc1ccccc1-c1cccc(OCC(O)CN2CCc3ccccc3C2)c1 (stereo not drawn) [Compound D93] | 10 to 40 µM
0.101 to 1 µM | N#Cc1ccc(-c2cccc(OCC(O)CN3CCc4ccccc4C3)c2)cc1 (stereo not drawn) [Compound D94] | 10 to 40 µM
0.101 to 1 µM | Oc1cccc(-c2cccc(OCC(O)CN3CCc4ccccc4C3)c2)c1 (stereo not drawn) [Compound D95] | 10 to 40 µM
